Measured values reported in paper PMC4718940, “Preclinical studies of 5-fluoro-2′-deoxycytidine and tetrahydrouridine in pediatric brain tumors” (Journal of Neuro-Oncology, 2015).
Where two headings read alike, the source gives them in different places.

Tests used:
mouse EP neurospheres = assay: 72 h dose response, CellTiter-Glo, mouse EP neurospheres; format: cell-based; settings: Mus musculus, Fig. 2a, read-out: EC50
Description: (§1) In the Discovery Phase, the initial studies included the screen of a library of 9 compounds against epigenetic regulators at a single concentration and a dose-response on G3 MB, EP, and CPC tumor cells, as well as HEPG2 and BJ (Fig. 1). The library and dose response studies are described in the Supplementary Material.
(§2) Briefly, cells (see Supplementary Table S2 for cell identity) were plated in 384-well plates (Corning) in 30 µL of supplemented neurobasal medium by using an automated plate filler (Wellmate, Matrix). After 24 hr, 28 nL of compound was transferred via pin tool, resulting in a final drug concentration of approximately 4 nM to 10 µM. After 72 hr of treatment, CellTiter-Glo reagent (Promega) was added, and the luminescence signal was measured using an automated Envision plate reader (Perkin-Elmer). Luminescence data were normalized by log10-transformation prior to calculating the percentage of inhibition using the following equation: 100 × (negative control mean − compound value)/(negative control mean − positive control mean). Our negative control represents cells treated with 0.1% DMSO with 0% inhibition. Cells treated with 35 µM cycloheximide (G3 MB tumor spheres) or 10 µM panobinostat (EP and CPC cells) were used as positive controls with 100% inhibition. The response of cells to the compounds were normalized to that of the positive controls present in each plate screened, shown in the Y axis of the dose-response curve. […] Unless otherwise reported, the y-axis for each dose response curve in the figures was independently normalized to the range from 0 to 1 and therefore reported as ‘relative growth inhibition’. High through put assay data were analyzed by using our in-house Robust Interpretation of Screening Experiments (RISE) application that was written in Pipeline Pilot (Accelrys, v. 8.5) and R (R Development Core Team).

[1] = system: mouse CPC neurospheres (CPC300); assay: 72 h dose response, CellTiter-Glo, mouse CPC neurospheres; format: cell-based; settings: Mus musculus, Fig. 2a, read-out: EC50
Description: as §1, §2

[2] = system: Patient-derived xenograft of a human EP; assay: 72 h dose response, CellTiter-Glo, human EP PDX cells; format: cell-based; settings: Fig. 2b
[3] = system: tumorspheres derived from murine G3 MB, EP, and CPC; assay: In vitro growth inhibition, all three tumor cell types (summary); format: cell-based; settings: Mus musculus, 72 hr
[4] = system: Trp53−/−, Cdkn2c−/− neurospheres; assay: FdCyd growth inhibition, control neurospheres; format: cell-based, mouse; settings: Fig. 2c
[5] = system: Ink4a/Arf−/− neural stem cells; assay: FdCyd growth inhibition, neural stem cells; format: cell-based, mouse; settings: Fig. 2c
BJ cells = assay: FdCyd growth inhibition, BJ control cells; format: cell-based, human; settings: Fig. 2c
HEPG2 cells = assay: FdCyd growth inhibition, HEPG2 control cells; format: cell-based, human; settings: Fig. 2c
[6] = In vitro plasma protein binding; format: in vitro ADME; settings: data not shown, read-out: fu,p (unbound fraction, plasma protein)
[7] = In vitro brain homogenate binding; format: in vitro ADME; settings: data not shown, read-out: fu,b (unbound fraction, brain homogenate)
[8] = Cerebral microdialysis, tECF disposition in tumor-bearing CD1 nude mice; format: in vivo; settings: mouse, tumor extracellular fluid (dialysate) vs plasma, FdCyd 6 mg/kg with THU 100 mg/kg, read-out: tECF-to-plasma partition coefficient of unbound FdCyd (Kpt,uu), mean ± SD
Description: Once a drug passed the Discovery Phase it was moved to the Pre-Clinical Phase, which included PK and PD studies (Fig. 1). The details of the plasma PK and cerebral microdialysis studies are provided in the Supplemental Materials.
Cerebral microdialysis studies were performed in CD1 nude mice orthotopically transplanted with G3 MB, EP, or CPC tumors [,2,6]. Plasma and dialysate samples collected during microdialysis studies were analyzed by using LC-MS/MS to determine drug concentrations. Data obtained from microdialysis performed in individual tumor models were analyzed separately by using a compartmental approach. A model with a tECF compartment that was linked to the plasma compartment by using efflux (CL32) and influx (CL23) clearances was fit to the plasma and tumor ECF concentration-time data. These were obtained from previous plasma PK studies in all tumor models and from each microdialysis by using separate, tumor-specific population NONMEM 7.2.
The tECF-to-plasma partition coefficient of unbound drug (Kpt,uu) was calculated as a ratio of CL23 to CL32. The mean ± SD of individual tECF-to-plasma partition coefficients of unbound FdCyd (Kpt,uu) in CD1 nude mice bearing G3 MB, EP, and CPC were 0.06 ± 0.02, 0.18 ± 0.14, and 0.09 ± 0.04, respectively. […] Inter-animal variability in Kpt,uu, however, was higher in EP tumors than in G3 MB and CPC tumors.The area under plasma concentration-time curve (AUCplasma) was calculated as the ratio of dosage to CL, whereas AUCtECF was calculated as the product of AUCplasma and Kpt,uu.

[9] = system: mouse G3 MB tumorspheres (Myc1, Myc2); assay: In vitro proliferation/cell cycle, BrdU FACS; format: cell-based; settings: 4 nM FdCyd alone, compared to DMSO-treated cells
Description: See Supplementary Material for more details.
Tumors were fixed in 10% formalin.

CPC tumors [10] = assay: In vivo proliferation, Ki67 immunohistochemistry, CPC
Description: (§3) To assess apoptosis and proliferation in vivo, G3 MB, EP, and CPC tumors were isolated from mice 3, 8, or 24 h after treatment with compound or vehicle, fixed in 10 % formalin, and sections were immunostained with antibodies to Caspase 3 (apoptosis) or Ki67 (proliferation).
(§4) In vivo apoptosis and proliferation were performed on G3 MB, EP, and CPC tumors isolated from mice 3, 8, or 24 hr after treatment with compound or vehicle (saline). Tumors were fixed in 10% formalin. Sections (4-micron) were immunostained with antibodies to Caspase 3 (CP229C, BioCare Medical, Concorde, CA) to detect apoptotic cells, or Ki67 (ThermoShandon, RM9106) to detect proliferation. The number of positive cells for each stain was normalized to the total number of cells.
Mice bearing G3 MB, EP, or CPC tumors were harvested 3, 8, or 24 hr after IP injection of vehicle (V) or FdCyd + THU (FdCyd). Fixed brains were sliced and stained for Ki67. The percentage of positive cells was calculated based on total number of cells.

CPC tumors [11] = assay: In vivo apoptosis, Caspase 3 immunohistochemistry, CPC
Description: as §3, §4
(§5) Mice bearing G3 MB, EP, or CPC tumors were harvested 3, 8, or 24 hr after IP injection of vehicle (V) or FdCyd + THU (FdCyd). Fixed brains were sliced and stained for caspase 3. The percentage of positive cells was calculated based on total number of cells. SD= standard deviation.

G3 MB tumors = assay: In vivo apoptosis, Caspase 3 immunohistochemistry, G3 MB
Description: as §3, §4, §5

With `Nc1nc(=O)n([C@H]2C[C@H](O)[C@@H](CO)O2)cc1F` [FdCyd, 5-fluoro-2′-deoxycytidine] the EC50 (mouse EP neurospheres) was 4 nM, the EC50 [1] was 5.6 nM and the EC50 [2] was 8.3 nM. For the same molecule, the EC50 [3] was 1 to 6 nM, the “sensitivity to FdCyd (growth inhibition)” value [4] was “showed sensitivity” and the “sensitivity to FdCyd (growth inhibition)” value [5] was “showed sensitivity”. The “sensitivity to FdCyd (growth inhibition)” value (BJ cells) was “not”, the “sensitivity to FdCyd (growth inhibition)” value (HEPG2 cells) was “not” and the fraction unbound [6] was ~1. The fraction unbound [7] was ~1, the Kp ([8]; mice bearing CPC) was 0.09 ± 0.04 and the Kp ([8]; mice bearing EP) was 0.18 ± 0.14. For the same molecule, the Kp ([8]; mice bearing G3 MB) was 0.06 ± 0.02, the “cell cycle distribution (BrdU)” value [9] was “increased the number of cells in the G0/G1phase” and the “Ki67 % of positive cells” value (CPC tumors [10]; 3 hr after IP injection of FdCyd + THU, vehicle 59.03) was 47.82%. For the same molecule, the “Ki67 % of positive cells” value (CPC tumors [10]; 8 hr after IP injection of FdCyd + THU, vehicle 62.25) was 23.4%, the “Ki67 % of positive cells” value (CPC tumors [10]; 24 hr after IP injection of FdCyd + THU, vehicle 53.18) was 61.3% and the “Caspase-3 % of positive cells” value (CPC tumors [11]; 3 hr after IP injection of FdCyd + THU, vehicle 3.963) was 10.63%. For the same molecule, the “Caspase-3 % of positive cells” value (CPC tumors [11]; 8 hr after IP injection of FdCyd + THU, vehicle 4.917) was 2.297%, the “Caspase-3 % of positive cells” value (CPC tumors [11]; 24 hr after IP injection of FdCyd + THU, vehicle 3.493) was 6.797% and the “Caspase-3 % of positive cells” value (G3 MB tumors; 3 hr after IP injection of FdCyd + THU, vehicle 12.37) was 19.88%. For the same molecule, the “Caspase-3 % of positive cells” value (G3 MB tumors; 8 hr after IP injection of FdCyd + THU, vehicle 8.945) was 11.04% and the “Caspase-3 % of positive cells” value (G3 MB tumors; 24 hr after IP injection of FdCyd + THU, vehicle 9.419) was 10.38%.
